Source: US6592845B2, “Estrogens for treating ALS” (Parker Hughes Institute, priority 1999, dated 2003)

Test system: Heterozygous transgenic mice carrying the human SOD-1 (G93A)
Test: Murine model of familial ALS (FALS): monitoring for limb paralysis and death, life-table analysis
Assay type: in vivo
Details: 16 mg/kg twice a day, everyday except weekends
Method: Heterozygous transgenic mice carrying the human SOD-1 (G93A) were obtained from Jackson Laboratory (Bar Harbor, Me., USA). These mice were monitored everyday for limbic paralysis and death. Onset of FALS was defined as the first day upon which limbic paralysis was observed. Life-table analysis was performed using Statview, Abacus Concepts, Inc. (Berkeley, Calif.).
There are currently several transgenic animal models of ALS (Borchelt et al., 1998, Transgenic mouse models of Alzheimer's disease and amyotrophic lateral sclerosis, Brain Pathology, 8: 735-757). The G93A HuSOD1 is a well established animal model of familial ALS which has been described previously in detail (Dal Canto M C, Gurney Me., 1994, The development of central nervous system pathology in a murine transgenic model of human amyotrophic lateral sclerosis. Am J. Pathol 145: 1-9; Gurney et al., 1994, Motor neuron degeneration in mice that express a human Cu,Zn superoxide dismutase mutation, Science 264:1772-1775). Levels of SOD1 activity are elevated to about five times above that of endogenous SOD 1 in these mice. In this model, the mice develop hind limb weakness, a coarse coat, poor grooming, and reduced stride length at about 3 months of age. By five months of age, a majority of the mice are moribund.
Heterozygous transgenic mice carrying the human SOD-1 (G93A) were obtained from Jackson Laboratory (Bar Harbor, Me., USA). The mice were treated either with vehicle or genistein at 16 mg/kg twice a day, everyday, except on weekends. The mice were monitored everyday for limb paralysis and death. Onset of FALS was defined as the first day upon which limbic paralysis was observed. Life-table analysis was performed using Statview, Abacus Concepts, Inc. (Berkeley, Calif.). […]
The ability of 4-(4′-hydroxylphenyl)-amino-6,7-dimethoxyquinazoline (P131) and 2,4,4′-trihydroxy deoxybenzoin (DDE-17) to protect against neural degeneration in familial ALS was evaluated using the methods described above for Example 2. […]

[1] = male FALS mice, compared with vehicle-treated males

With O=c1c(-c2ccc(O)cc2)coc2cc(O)cc(O)c12 [Genistein, genistein] the “disease onset (first day upon which limbic paralysis was observed)” value (female FALS mice, compared with untreated (vehicle) females) was “did not exhibit a delay”, the “disease onset (first day upon which limbic paralysis was observed)” value [1] was “delayed” and the mortality [1] was “delayed”.
